Measured values taken from patent publication US20080132509A1, “Substituted Biaryl Analogues” (Neurogen Corporation, priority 2004, published 2008).

Target: VR (Homo sapiens, UniProt Q8NER1)
Assay: not given
Settings: typically; no more than moderate affinity; cited from earlier work

Sequence of VR (Q8NER1 whole entry): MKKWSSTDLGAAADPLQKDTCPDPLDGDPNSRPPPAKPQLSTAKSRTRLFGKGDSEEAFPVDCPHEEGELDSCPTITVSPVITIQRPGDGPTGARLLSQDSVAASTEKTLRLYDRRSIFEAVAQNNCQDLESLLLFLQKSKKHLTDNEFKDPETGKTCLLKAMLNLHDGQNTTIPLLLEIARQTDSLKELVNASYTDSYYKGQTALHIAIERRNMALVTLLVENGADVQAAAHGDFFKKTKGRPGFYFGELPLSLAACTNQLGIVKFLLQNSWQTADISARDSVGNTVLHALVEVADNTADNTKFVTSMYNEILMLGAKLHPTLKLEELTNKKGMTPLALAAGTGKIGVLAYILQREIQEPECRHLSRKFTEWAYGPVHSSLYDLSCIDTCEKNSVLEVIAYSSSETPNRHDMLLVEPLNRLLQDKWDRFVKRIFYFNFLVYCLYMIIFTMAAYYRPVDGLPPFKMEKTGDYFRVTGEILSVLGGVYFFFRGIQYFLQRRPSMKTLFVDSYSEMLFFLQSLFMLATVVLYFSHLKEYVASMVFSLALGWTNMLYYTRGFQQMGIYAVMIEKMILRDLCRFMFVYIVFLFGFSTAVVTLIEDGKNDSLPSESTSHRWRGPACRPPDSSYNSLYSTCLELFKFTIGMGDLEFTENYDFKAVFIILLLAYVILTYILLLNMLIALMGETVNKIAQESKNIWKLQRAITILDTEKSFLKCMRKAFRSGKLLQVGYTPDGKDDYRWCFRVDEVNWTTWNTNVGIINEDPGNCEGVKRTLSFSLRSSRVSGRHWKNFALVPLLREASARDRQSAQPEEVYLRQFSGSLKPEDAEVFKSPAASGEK

Structure (SMILES)	Ki [µM]
Cl.Cl.Cl.Cl.Cl.Cl.N.N.N.N.N.N.N.N.N.N.N.N.N.N.[O-2].[O-2].[Ru+3].[Ru+3].[Ru+4] [ruthenium red]	≥ 140

Target: T1, human capsaicin receptor (Homo sapiens, UniProt Q8NER1)
T1 construct: expressed in transfected cells
T1 sequence (Q8NER1 whole entry): as above
Assay: Calcium mobilization assay, determination of agonist activity
Format: cell-based
Settings: cells expressing human capsaicin receptor, no capsaicin added, FLUO-3 fluorescence
Experimental: (§1) A cDNA encoding full length human capsaicin receptor (SEQ ID NO: 1, 2 or 3 of U.S. Pat. No. 6,482,611) was subcloned in the plasmid pBK-CMV (Stratagene, La Jolla, Calif.) for recombinant expression in mammalian cells.
(§2) Human embryonic kidney (HEK293) cells were transfected with the pBK-CMV expression construct encoding the full length human capsaicin receptor using standard methods. The transfected cells were selected for two weeks in media containing G418 (400 μg/ml) to obtain a pool of stably transfected cells. Independent clones were isolated from this pool by limiting dilution to obtain clonal stable cell lines for use in subsequent experiments.
Cells transfected with expression plasmids (as described in Example 4) and thereby expressing human capsaicin receptor are seeded and grown to 70-90% confluency in FALCON black-walled, clear-bottomed 96-well plates (#3904, BECTON-DICKINSON, Franklin Lakes, N.J.). The culture medium is emptied from the 96 well plates and FLUO-3 AM calcium sensitive dye (Molecular Probes, Eugene, Oreg.) is added to each well (dye solution: 1 mg FLUO-3 AM, 440 μL DMSO and 440 μ20% pluronic acid in DMSO, diluted 1:250 in Krebs-Ringer HEPES (KRH) buffer (25 mM HEPES, 5 mM KCl, 0.96 mM NaH2PO4, 1 mM MgSO4, 2 mM CaCl2, 5 mM glucose, 1 mM probenecid, pH 7.4), 50 μl diluted solution per well). Plates are covered with aluminum foil and incubated at 37° C. for 1-2 hours in an environment containing 5% CO2. […]
The ability of a test compound to act as an agonist of the capsaicin receptor is determined by measuring the fluorescence response of cells expressing capsaicin receptors elicited by the compound as function of compound concentration. […] The extent of efficacy of each test compound is also determined by calculating the response elicited by a concentration of test compound (typically 1 μM) relative to the response elicited by 100 nM capsaicin. This value, called Percent of Signal (POS), is calculated by the following equation: […]

EC50 [nM]	Structure (SMILES)
< 1000	CC1CCCN1c1nc(-c2ccc(F)cc2)cc(-c2ccc(N3CCC(CO)CC3)nc2)n1 (stereo not shown) [Compound 7, (1-{5-[6-(4-fluorophenyl)-2-(2-methylpyrrolidin-1-yl)pyrimidin-4-yl]pyridin-2-yl}piperidin-4-yl)methanol]
< 1000	CC1CCCN1c1nc(-c2ccc(F)cc2)cc(-c2ccc(N3CCC(O)CC3)nc2)n1 (stereo not shown) [Compound 1, 1-{5-[6-(4-fluorophenyl)-2-(2-methylpyrrolidin-1-yl)pyrimidin-4-yl]pyridin-2-yl}piperidin-4-ol]
< 1000	CC1CCCN1c1nc(-c2ccc(F)cc2)cc(-c2ccc(N3CCC(C(N)=O)CC3)nc2)n1 (stereo not shown) [Compound 4, 1-{5-[6-(4-fluorophenyl)-2-(2-methylpyrrolidin-1-yl)pyrimidin-4-yl]pyridin-2-yl}piperidine-4-carboxamide]

Target: T1, human capsaicin receptor
Assay: Calcium mobilization assay, determination of antagonist activity
Format: cell-based
Settings: cells expressing human capsaicin receptor, capsaicin at EC50, FLUO-3 fluorescence; read-out: IC50 (antag.)
Experimental: as §1, §2
Cells transfected with expression plasmids (as described in Example 4) and thereby expressing human capsaicin receptor are seeded and grown to 70-90% confluency in FALCON black-walled, clear-bottomed 96-well plates (#3904, BECTON-DICKINSON, Franklin Lakes, N.J.). The culture medium is emptied from the 96 well plates and FLUO-3 AM calcium sensitive dye (Molecular Probes, Eugene, Oreg.) is added to each well (dye solution: 1 mg FLUO-3 AM, 440 μL DMSO and 440 μ20% pluronic acid in DMSO, diluted 1:250 in Krebs-Ringer HEPES (KRH) buffer (25 mM HEPES, 5 mM KCl, 0.96 mM NaH2PO4, 1 mM MgSO4, 2 mM CaCl2, 5 mM glucose, 1 mM probenecid, pH 7.4), 50 μl diluted solution per well). Plates are covered with aluminum foil and incubated at 37° C. for 1-2 hours in an environment containing 5% CO2. After the incubation, the dye is emptied from the plates, and the cells are washed once with KRH buffer, and resuspended in KRH buffer.
To measure the ability of a test compound to agonize or antagonize a calcium mobilization response in cells expressing capsaicin receptors to capsaicin or other vanilloid agonist, the EC50 of the agonist capsaicin is first determined. An additional 20 μl of KRH buffer and 1 μl DMSO is added to each well of cells, prepared as described above. 100 μl capsaicin in KRH buffer is automatically transferred by the FLIPR instrument to each well. Capsaicin-induced calcium mobilization is monitored using either FLUOROSKAN ASCENT (Labsystems; Franklin, Mass.) or FLIPR (fluorometric imaging plate reader system; Molecular Devices, Sunnyvale, Calif.) instruments. Data obtained between 30 and 60 seconds after agonist application are used to generate an 8-point concentration response curve, with final capsaicin concentrations of 1 nM to 3 μM. KALEIDAGRAPH software (Synergy Software, Reading, Pa.) is used to fit the data to the equation: […]
to determine the 50% excitatory concentration (EC50) for the response. In this equation, y is the maximum fluorescence signal, x is the concentration of the agonist or antagonist (in this case, capsaicin), a is the Emax, b corresponds to the EC50 value and c is the Hill coefficient.
Test compounds are dissolved in DMSO, diluted in 20 μl KRH buffer so that the final concentration of test compounds in the assay well is between 1 μM and 5 μM, and added to cells prepared as described above. The 96 well plates containing prepared cells and test compounds are incubated in the dark, at room temperature for 0.5 to 6 hours. It is important that the incubation not continue beyond 6 hours. Just prior to determining the fluorescence response, 100 μl capsaicin in KRH buffer at twice the EC50 concentration determined as described above is automatically added by the FLIPR instrument to each well of the 96 well plate for a final sample volume of 200 μl and a final capsaicin concentration equal to the EC50. The final concentration of test compounds in the assay wells is between 1 μM and 5 μM. […] The concentration of antagonist required to provide a 50% decrease, relative to the response observed in the presence of capsaicin and without antagonist, is the IC50 for the antagonist, and is preferably below 1 micromolar, 100 nanomolar, 10 nanomolar or 1 nanomolar.

Structure (SMILES)	IC50 [nM]
Fc1ccc(-c2cc(-c3ccc(-c4ncccc4C(F)(F)F)cc3)nc(N3CCOCC3)n2)cc1Cl [Compound 9, 4-(4-(3-chloro-4-fluorophenyl)-6-{4-[3-(trifluoromethyl)pyridin-2-yl]phenyl}pyrimidin-2-yl)morpholine]	< 1000
Nc1nc(-c2ccc(-c3ncccc3C(F)(F)F)cc2)cc(-c2ccc(F)c(Cl)c2)n1 [Compound 8, 4-(3-chloro-4-fluorophenyl)-6-{4-[3(trifluoromethyl)pyridin-2-yl]phenyl}pyrimidin-2-amine]	< 1000
Fc1ccc(-c2cc(-c3ccc(-c4ncccc4C(F)(F)F)nc3)nc(N3CCOCC3)n2)cc1Cl [Compound 5, 5′-[6-(3-chloro-4-fluorophenyl)-2-morpholin-4-ylpyrimidin-4-yl]-3-(trifluoromethyl)-2,2′-bipyridine]	< 1000
Cc1cccnc1-c1ccc(-c2cc(-c3ccc(F)c(Cl)c3)nc(N3CCOCC3)n2)cn1 [Compound 6, 5′-[6-(3-chloro-4-fluorophenyl)-2-morpholin-4-ylpyrimidin-4-yl]-3-methyl-2,2′-bipyridine]	< 1000

The next lines start with the values.

IC50 [nM]	Structure (SMILES)
< 1000	CC1CCCN1c1nc(-c2ccc(F)cc2)cc(-c2ccc(N3CCC(O)CC3)nc2)n1 (stereo not shown) [Compound 1, 1-{5-[6-(4-fluorophenyl)-2-(2-methylpyrrolidin-1-yl)pyrimidin-4-yl]pyridin-2-yl}piperidin-4-ol]
< 1000	CC1CCCN1c1nc(-c2ccc(F)cc2)cc(-c2ccc(N3CCC(C(=O)O)CC3)nc2)n1 (stereo not shown) [Compound 3, 1-{5-[6-(4-fluorophenyl)-2-(2-methylpyrrolidin-1-yl)pyrimidin-4-yl]pyridin-2-yl}piperidine-4-carboxylicacid]
